Experimental data from patent publication US20090209525A1, “ENABLING METHODS TO IDENTIFY ALLOSTERIC MODULATORS OF RECEPTOR ACTIVITY” (priority 2006, published 2009).
Substitutions are numbered along the chain they refer to. Where two headings read alike, the source gives them in different places.

How the values were obtained:
M1 W101A receptor [1] = target: T1, M1 W101A receptor (Rattus norvegicus, UniProt P08482, W101A); assay: R-SAT HTS on M1 W101A receptor; format: cell-based; settings: compound at 300 nM, triplicate retest, activity over basal cellular response
T1 construct: expressed in transfected cells
T1 sequence (P08482 1-460 W101A): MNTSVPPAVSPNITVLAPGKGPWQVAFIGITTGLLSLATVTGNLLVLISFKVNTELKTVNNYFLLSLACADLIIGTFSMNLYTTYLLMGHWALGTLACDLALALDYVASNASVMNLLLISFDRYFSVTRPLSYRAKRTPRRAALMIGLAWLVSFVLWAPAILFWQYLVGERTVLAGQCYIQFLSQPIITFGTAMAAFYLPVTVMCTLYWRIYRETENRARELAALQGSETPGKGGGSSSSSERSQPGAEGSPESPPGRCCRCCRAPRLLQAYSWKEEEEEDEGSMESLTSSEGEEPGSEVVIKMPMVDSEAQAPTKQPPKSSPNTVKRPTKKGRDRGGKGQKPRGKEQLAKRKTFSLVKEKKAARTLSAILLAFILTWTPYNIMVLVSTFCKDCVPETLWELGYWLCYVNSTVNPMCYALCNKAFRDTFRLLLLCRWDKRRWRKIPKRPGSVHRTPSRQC

M1 W101A receptor [2] = target: T1, M1 W101A receptor; assay: R-SAT HTS on M1 W101A receptor; format: cell-based; settings: compound at 3 μM, triplicate retest, activity over basal cellular response
Experimental: (§1) NIH-3T3 cells were grown in 96-well tissue culture plates to 70 to 80% confluence in Dulbecco's modified essential media (DMEM) supplemented with 100 units/ml penicillin, 100 micrograms/ml streptomycin, 0.3 mg/ml L-glutamine (1% PSG, GIBCO) and 10% calf serum (Sigma-Aldrich). Cells were transfected for 18 h with DMEM containing 0.08 micrograms/ml receptor DNA and 0.3 micrograms/ml pSI-Bgal (Promega, Madison Wis.), 0.5% v/v Polyfect (Qiagen, Valencia Calif.). Medium was replaced with DMEM containing 1% PSG, 0.5% calf serum, 2% cyto-sf3 (Kemp Biotechnologies, Frederick, Md.), and varying concentrations of ligand. […] Cells were grown in a humidified atmosphere with 5% ambient CO2 for 5 days. Medium was removed from the plates, and beta-galactosidase activity was measured by the addition of o-nitrophenyl -d-galactopyranoside in phosphate-buffered saline with 5% Nonidet P-40.
Cells were contacted with over 280,000 compounds at a concentration of 3 μM.

[3] = target: T2, rat M1 wild-type receptors (Rattus norvegicus, UniProt P08482); assay: R-SAT functional assay, wild-type receptor; format: cell-based
T2 construct: expressed in transfected cells
T2 sequence (P08482 1-460): T1 sequence (P08482 1-460 W101A) with A101W
Experimental: (§2) Cells are co-transfected for 18 h with DMEM containing 0.08 micrograms/ml of an expression vector for the expression of the mutant receptor and 0.3 micrograms/ml pSI-Bgal (Promega, Madison Wis.), and 0.5% v/v Polyfect (Qiagen, Valencia Calif.), as recommended by the manufacturer. On day three, the medium is replaced with DMEM containing 1% PSG, 0.5% calf serum, 2% cyto-sf3 (Kemp Biotechnologies, Frederick, Md.), and varying concentrations of the compounds to be tested. Cells are grown in a humidified atmosphere with 5% ambient CO2 for 5 days. The media is removed from the plates, and beta-galactosidase activity is measured by the addition of o-nitrophenyl -d-galactopyranoside in phosphate-buffered saline with 5% Nonidet P-40. […] The following equation is fitted to the data using GraphPad Prism software (San Diego, Calif.):
as §1
(§3) Receptor Selection and Amplification (R-SAT™) Assays: R-SAT™ functional assays were carried out as follows. NIH-3T3 cells were grown in 96-well tissue culture plates to 70 to 80% confluence in Dulbecco's modified essential media (DMEM) supplemented with 100 units/ml penicillin, 100 micrograms/ml streptomycin, 0.3 mg/ml L-glutamine (1% PSG, GIBCO) and 10% calf serum (Sigma-Aldrich). Cells were transfected for 18 h with DMEM containing 0.08 micrograms/ml receptor DNA and 0.3 micrograms/ml pSI-Bgal (Promega, Madison Wis.), 0.5% v/v Polyfect (Qiagen, Valencia Calif.). The transfected cells were frozen away. Cells were thawed and added to 96 well plates with DMEM containing 1% PSG, 0.5% calf serum, 2% cyto-sf3 (Kemp Biotechnologies, Frederick, Md.), and varying concentrations of ligand.
(§4) In an effort to further characterize monoamine modulators, we used a panel of mutant muscarininc M1 receptors to analyze the activity and potency of orthosteric modulators and various allosteric modulators at those receptors.

rat M1 Y381A receptor = target: T3, rat M1 Y381A receptor (Rattus norvegicus, UniProt P08482, Y381A); assay: R-SAT functional assay, Y381A mutant; format: cell-based
T3 construct: expressed in transfected cells; host or cells: NIH-3T3
T3 sequence (P08482 1-460 Y381A): T1 sequence (P08482 1-460 W101A) with A101W, Y381A
Experimental: as §2, §1, §3, §4

M1 Y381A receptor = target: T4, M1 Y381A receptor (Rattus norvegicus, UniProt P08482, Y381A); assay: R-SAT antagonism of muscarinic agonists, Y381A; format: cell-based; settings: M1 YS81A as printed; maximal inhibition of NDMC (3 μM) response
T4 construct: expressed in transfected cells; host or cells: NIH-3T3
T4 sequence (P08482 1-460 Y381A): T1 sequence (P08482 1-460 W101A) with A101W, Y381A
Experimental: as §3

rat M1 W101A receptor = target: T5, rat M1 W101A receptor (Rattus norvegicus, UniProt P08482, W101A); assay: R-SAT functional assay, W101A mutant; format: cell-based; settings: M1 W101A
T5 construct: expressed in transfected cells
T5 sequence (P08482 1-460 W101A): T1 sequence (P08482 1-460 W101A)
Experimental: as §2, §1, §3, §4

M1 Y381 mutant receptor = target: T6, M1 Y381 mutant receptor (Rattus norvegicus, UniProt P08482, Y381A); settings: result in words; FIGS. 8A-8C
T6 sequence (P08482 1-460 Y381A): T1 sequence (P08482 1-460 W101A) with A101W, Y381A

[4] = Table 10, M1 Wild-Type, maximum response relative to carbachol
[5] = Table 10, M1 Y381A, maximum response relative to AC-42
[6] = Table 4, maximum response relative to xanomeline
[7] = Table 4, M1 wild type, maximum response relative to xanomeline
[8] = Table 4, M1 Y381A, maximum response relative to xanomeline

| SMILES | 300 nM Avg (M1 W101A receptor [1]) | 3 μM Avg. (M1 W101A receptor [2]) | other results |
| --- | --- | --- | --- |
| CCCOC1CCN(C[C@@H](C)CN2C(=O)COc3ccccc32)CC1.O=C(O)C(=O)O | 4.14 | 4.63 | – |
| CCCOC1CCN(CCCn2c(=O)ccc3ccccc32)CC1 | 3.90 | 4.65 | – |
| CCCOC1CCN(C[C@@H](C)CN2C(=O)COc3ccccc32)CC1 | 4.15 | 4.51 | – |
| CCCCC1CCN(C[C@@H](C)Cn2c(=O)ccc3ccccc32)CC1.O=C(O)C(O)C(O)C(=O)O | 4.34 | 4.50 | – |
| CCCOC1CCN(C[C@@H](C)CN2C(=O)CCc3ccccc32)CC1.O=C(O)C(=O)O | 4.11 | 4.44 | – |
| CCCOC1CCN(C[C@@H](C)Cn2c(=O)ccc3ccccc32)CC1.O=C(O)C(=O)O | 4.29 | 4.37 | – |
| CCCCC1CCN(CCCN2C(=O)CCc3cc(OC)ccc32)CC1.O=C(O)C(=O)O | 3.32 | 4.19 | – |
| CCCC=C1CCN(C[C@@H](C)CN2C(=O)COc3ccc(F)cc32)CC1.O=C(O)C(=O)O | 3.81 | 4.17 | – |
| CCCCC1CCN(CCCn2c(=O)ccc3cc(F)ccc32)CC1 | 3.81 | 3.85 | – |
| CCCCC1CCN(C[C@@H](C)CN2C(=O)CCc3ccccc32)CC1.O=C(O)C(=O)O | 3.93 | 3.74 | – |
| CCCCC1CCN(CCn2c(=O)[nH]c3ccccc32)CC1 | 3.26 | 3.67 | – |
| CCCCC1CCN(CCCN2C(=O)CCc3ccccc32)CC1.O=C(O)C(=O)O | 3.13 | 3.60 | – |
| CCCCC1CCN(C[C@@H](C)CN2C(=O)COc3ccccc32)CC1.O=C(O)C(=O)O | 4.16 | 3.55 | – |
| COCCC1CCN(CCCn2c(=O)sc3ccccc32)CC1.O=C(O)C(=O)O | 2.87 | 3.35 | – |
| CCCCC1CCN(CCCN2C(=O)CSc3ccccc32)CC1.O=C(O)C(=O)O | 3.30 | 3.34 | – |
| CCCCC1CCN(CCCN2C(=O)COc3ccccc32)CC1.O=C(O)C(=O)O | 3.86 | 3.23 | – |
| CC(C)COc1ccc(CC(=O)N(Cc2ccc(F)cc2)C2CCN(CCCN3C(=O)OC[C@@H]3C(C)C)CC2)cc1.O=C(O)C(=O)O | 2.58 | 3.18 | – |
| CCOCCC1CCN(CCCn2c(=O)[nH]c3ccccc32)CC1.O=C(O)C(F)(F)F | 2.70 | 2.83 | – |
| CCCCC1CCN(CCCn2c(=O)oc3c(Cl)cc(Cl)c(Cl)c32)CC1.O=C(O)C(=O)O | 2.36 | 2.60 | – |
| CCCCC1CCN(CCCN2C(=O)COc3ccc(C(C)=O)cc32)CC1 | 2.86 | 2.41 | – |
| CN1CCN(C2=Nc3ccccc3Oc3ccc(Cl)cc32)CC1.O=C(O)CCC(=O)O [Loxapine] | – | – | % Eff [3, 4]: 3%; EC50 (rat M1 Y381A receptor; Table 10, M1 Y381A, NA = non-active, read-out: pEC50 (converted)): 1260 nM; % Eff (rat M1 Y381A receptor; [5]): 165% |
| C[N+]1(C)[C@@H]2C[C@@H](OC(=O)[C@H](CO)c3ccccc3)C[C@H]1[C@@H]1O[C@@H]12 [NMS] | – | – | inhib (M1 Y381A receptor): 36% |
| O=C1CCCN1CC#CCN1CCCC1 [Oxotremorine] | – | – | % Eff (rat M1 W101A receptor; [6]): 87%; % Eff (rat M1 W101A receptor; Table 10, maximum response relative to AC-42): 120%; EC50 (rat M1 W101A receptor; pEC50, Table 4): 3160 nM; EC50 (rat M1 W101A receptor; pEC50, Table 10): 2510 nM; % Eff [3, 7]: 91%; % Eff [3, 4]: 91%; EC50 ([3]; pEC50, Table 4, M1 wild type): 79.4 nM; EC50 ([3]; pEC50, Table 10, M1 Wild-Type, NA = non-active): 31.6 nM; EC50 (rat M1 Y381A receptor): 3980 nM; % Eff (rat M1 Y381A receptor; [8]): 8%; % Eff (rat M1 Y381A receptor; [5]): 23% |
| CCCCCCOc1nsnc1C1=CCCN(C)C1 [Xanomeline] | – | – | % Eff (rat M1 W101A receptor; [6]): 106%; % Eff [3, 7]: 100%; % Eff (rat M1 Y381A receptor; [8]): 100% |
| C[N+]1(C)[C@@H]2CC(OC(=O)[C@H](CO)c3ccccc3)C[C@H]1[C@@H]1O[C@@H]12 (some centres unmarked) [^3H-NMS, 1-[N-methyl-^3H]Scopolamine methyl chloride] | – | – | binding of ^3H-NMS to receptor (M1 Y381 mutant receptor): not to the Y381 mutant receptor |
